Experimental data: US8084046B2 (priority 2001, dated 2011)
Values joined by “and” are separate entries in the source; they are usually repeats but may differ in a detail not shown here. Identical values can stand only once. Like-named read-outs stand apart in the source and are kept apart here.

Key:
Format in all cases: cell-based
[1] = test system: S. aureus (MN8); conditions: 24 h
[2] = test system: S. aureus (MN8)
[3] = test system: S. aureus MN8; design: ngTSST-1 per CFU: scale not given here; conditions: for % Reduction / ngTSST-1 per CFU: terpineol 0%
[4] = test system: S. aureus MN8

## CC(C)=CCC/C(C)=C/CO [Geraniol]
[1]
  ng TSST-1 per OD Unit: 26

## C=CC(C)(O)CCC=C(C)C (stereo not shown) [Linalool]
[1]
  ng TSST-1 per OD Unit: 421

## CC1CCC(C(C)C)C(O)C1 (stereo not shown) [Menthol]
[2]
  effect on the growth of S. aureus cells: minimal, if any, effect on the growth of S. aureus cells
[1]
  ng TSST-1 per OD Unit: 33

## CC1(O)CCC(C(C)(C)O)CC1 (stereo not shown) [p-menthane-1,8-diol]
[1]
  ng TSST-1 per OD Unit: 792

## myreth-3-myristate [Cetiol]
[3]
  ng TSST-1 per mL: 1147 and 989 and 1556
[3]; Cetiol 2.5 mM
  % Reduction: 0%
  ngTSST-1 per CFU: 371 ng per CFU
[3]; Cetiol 5.0 mM
  % Reduction: 39%
  ngTSST-1 per CFU: 196 ng per CFU
[3]; Cetiol 10.0 mM
  % Reduction: 37%
  ngTSST-1 per CFU: 200 ng per CFU
[4]
  % CFU/mL × 10^6: 5.9 and 5.0 and 4.2
